This is an account of results in US11878970B2, “Allosteric chromenone inhibitors of phosphoinositide 3-kinase (PI3K) for the treatment of disease” (Petra Pharma Corporation, priority 2021, dated 2024).

pIC50: −log10 of the molar value.

The target of assay [1] is T1, PI3K-α (PIK3CA) H1047R mutant, p110α/p85α complex (Homo sapiens, UniProt P42336, H1047R).
T1 construct: Recombinant, catalytically active human full length PIK3KA Wild-type and H1047R mutant; 6×His (N); purchased EMD Millipore Sigma 14-792M
Nature of the assay: PI3K-alpha kinase (PIK3CA) biochemical activity, ADP-Glo, H1047R mutant. Put shortly: (§1)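 ADP formation measured by ADP-Glo luminescence after reaction at 27 °C to about 10% ATP turnover, using 20 uM ATP, 50 uM PIP2diC8 or soy PI lipid, HEPES pH 7.4 with MgCl2. Enzyme (1-5 nM WT or H1047R p110α/p85α) and compound preincubated 1 h first; 10-point 1:3 curves fitted four-parameter for IC50.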

In assay [2] the target is T2, PI3K-α (PIK3CA) wild-type (WT), p110α/p85α complex (Homo sapiens, UniProt P42336).
T2 construct: Recombinant, catalytically active human full length PIK3KA Wild-type and H1047R mutant; 6×His (N); purchased EMD Millipore Sigma 14-602M
Nature of the assay: PI3K-alpha kinase (PIK3CA) biochemical activity, ADP-Glo, wild-type. Put shortly: as §1
For orientation: ADP-Glo first removes unused ATP, then detects ADP through luciferase.

[3] abbreviates: PIP2diC8 lipid substrate (footnote 1).

T1 sequence (P42336 whole entry H1047R): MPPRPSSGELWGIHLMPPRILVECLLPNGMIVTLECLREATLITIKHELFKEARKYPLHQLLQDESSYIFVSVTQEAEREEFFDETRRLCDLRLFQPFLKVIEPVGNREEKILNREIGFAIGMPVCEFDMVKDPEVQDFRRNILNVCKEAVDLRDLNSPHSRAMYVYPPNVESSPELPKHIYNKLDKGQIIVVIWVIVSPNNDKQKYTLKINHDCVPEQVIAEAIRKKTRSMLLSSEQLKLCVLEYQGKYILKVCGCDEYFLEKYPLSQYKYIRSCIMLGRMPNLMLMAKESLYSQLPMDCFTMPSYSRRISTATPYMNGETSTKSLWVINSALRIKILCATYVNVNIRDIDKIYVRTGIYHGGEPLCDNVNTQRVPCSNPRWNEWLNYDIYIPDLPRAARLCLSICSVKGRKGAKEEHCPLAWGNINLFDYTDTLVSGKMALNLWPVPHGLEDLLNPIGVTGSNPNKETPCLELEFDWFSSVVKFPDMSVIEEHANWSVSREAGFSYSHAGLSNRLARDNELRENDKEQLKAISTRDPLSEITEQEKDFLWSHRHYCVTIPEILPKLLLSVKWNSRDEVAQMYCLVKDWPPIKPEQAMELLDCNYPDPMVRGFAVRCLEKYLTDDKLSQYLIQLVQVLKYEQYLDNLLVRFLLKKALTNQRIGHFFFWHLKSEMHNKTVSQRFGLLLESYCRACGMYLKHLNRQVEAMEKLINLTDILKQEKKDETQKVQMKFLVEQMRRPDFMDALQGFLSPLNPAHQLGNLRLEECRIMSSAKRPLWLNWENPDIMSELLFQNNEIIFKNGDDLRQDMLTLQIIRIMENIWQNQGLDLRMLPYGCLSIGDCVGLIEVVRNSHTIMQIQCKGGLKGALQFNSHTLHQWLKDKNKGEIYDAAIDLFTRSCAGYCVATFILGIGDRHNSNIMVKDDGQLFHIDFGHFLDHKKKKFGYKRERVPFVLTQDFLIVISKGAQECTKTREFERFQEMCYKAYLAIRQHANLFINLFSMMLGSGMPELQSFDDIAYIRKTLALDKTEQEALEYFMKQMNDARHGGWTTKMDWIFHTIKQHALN
T1 sequence (P27986 whole entry partner): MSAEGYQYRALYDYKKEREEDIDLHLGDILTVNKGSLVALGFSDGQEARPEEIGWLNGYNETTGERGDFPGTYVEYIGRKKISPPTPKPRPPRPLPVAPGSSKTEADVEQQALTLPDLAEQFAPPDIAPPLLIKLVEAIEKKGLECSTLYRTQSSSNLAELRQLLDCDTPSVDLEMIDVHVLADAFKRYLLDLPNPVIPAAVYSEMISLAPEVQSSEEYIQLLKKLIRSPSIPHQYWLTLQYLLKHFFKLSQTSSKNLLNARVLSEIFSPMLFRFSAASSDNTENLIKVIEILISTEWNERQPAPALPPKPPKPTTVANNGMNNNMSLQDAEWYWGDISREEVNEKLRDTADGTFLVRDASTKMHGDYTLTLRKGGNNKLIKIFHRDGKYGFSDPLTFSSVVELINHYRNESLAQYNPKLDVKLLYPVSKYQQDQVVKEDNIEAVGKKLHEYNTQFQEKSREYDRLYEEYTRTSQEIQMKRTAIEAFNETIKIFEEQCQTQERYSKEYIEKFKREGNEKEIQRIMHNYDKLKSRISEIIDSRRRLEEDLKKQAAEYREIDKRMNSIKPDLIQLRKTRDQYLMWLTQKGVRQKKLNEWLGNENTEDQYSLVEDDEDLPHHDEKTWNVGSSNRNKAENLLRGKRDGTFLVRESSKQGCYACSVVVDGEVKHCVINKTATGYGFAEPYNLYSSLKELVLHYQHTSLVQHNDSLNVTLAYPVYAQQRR

The term pIC50 denotes −log10 of the IC50, conventionally taken in molar units. Higher therefore signals a low IC50. `Cc1cc(C(C)Nc2ccccc2C(=O)O)c2oc(-c3cn(C)c4ccccc34)c(C)c(=O)c2c1` (single isomer, unassigned) [Example 140, 2-[1-[3,6-Dimethyl-2-(1-methylindol-3-yl)-4-oxo-chromen-8-yl]ethylamino]benzoic acid]: the pIC50 in assay [1] (Soy PI lipid substrate) is greater than 6.30; in assay [2] (Soy PI lipid substrate), 5.30 to 6.00.

Consider `Cc1cc(C(C)Nc2ccc(Cl)c(F)c2C(=O)O)c2oc(-c3ccc4nc(C)cn4c3)cc(=O)c2c1` (single isomer, unassigned) [Example 183, 3-chloro-2-fluoro-6-[1-[6-methyl-2-(2-methylimidazo[1,2-a]pyridin-6-yl)-4-oxo-chromen-8-yl]ethylamino]benzoic acid], for which the pIC50 in assay [1] (Soy PI lipid substrate) was greater than 6.30; in assay [2] (Soy PI lipid substrate), 6.00 to 6.30.

As to `Cc1cc(C(C)Nc2ccccc2C(=O)O)c2oc(-c3ccc4nnc(C(C)C)n4c3)cc(=O)c2c1` (single isomer, unassigned) [Example 78, 2-[1-[2-(3-Isopropyl-[1,2,4]triazolo[4,3-a]pyridin-6-yl)-6-methyl-4-oxo-chromen-8-yl]ethylamino]benzoic acid], the pIC50 in assay [1] (Soy PI lipid substrate) was 5.30 to 6.00; in assay [2] (Soy PI lipid substrate), less than 5.00.

For `Cc1cc(C(C)Nc2ccccc2C(=O)O)c2oc(-c3ccc4c(c3)ncn4C)cc(=O)c2c1` (single isomer, unassigned) [Example 166, 2-[1-[6-Methyl-2-(1-methylbenzimidazol-5-yl)-4-oxo-chromen-8-yl]ethylamino]benzoic acid], the pIC50 is greater than 6.30 in assay [1] (Soy PI lipid substrate) and 5.00 to 5.30 in assay [2] (Soy PI lipid substrate).

As to `CC(Nc1cccnc1C(=O)O)c1cc(C(F)(F)F)cc2c(=O)cc(-c3cc4ccccc4[nH]3)oc12` (centres unmarked) [Example 185, 3-[1-[2-(1H-Indol-2-yl)-4-oxo-6-(trifluoromethyl)chromen-8-yl]ethylamino]pyridine-2-carboxylic acid], the pIC50 in assay [1] (Soy PI lipid substrate) and in assay [2] (Soy PI lipid substrate) was less than 5.00 in each case.

Consider `Cc1cc(C(C)Nc2ccccc2C(=O)O)c2oc(-c3cccn4ccnc34)cc(=O)c2c1` (single isomer, unassigned) [Example 127, 2-[1-(2-Imidazo[1,2-a]pyridin-8-yl-6-methyl-4-oxo-chromen-8-yl)ethylamino]benzoic acid], for which the negative logarithm of the IC50 (pIC50) is 6.00 to 6.30 in assay [1] (Soy PI lipid substrate) and 5.00 to 5.30 in assay [2] (Soy PI lipid substrate).

As for `Cc1cn2nc(-c3cc(=O)c4cc(C(F)(F)F)cc(C(C)Nc5ccc(Cl)nc5C(=O)O)c4o3)ccc2n1` (single isomer, unassigned) [Example 102, 6-Chloro-3-[1-[2-(2-methylimidazo[1,2-b]pyridazin-6-yl)-4-oxo-6-(trifluoromethyl)chromen-8-yl]ethylamino]pyridine-2-carboxylic acid], the results for the negative logarithm of the IC50 (pIC50) in assay [1] (Soy PI lipid substrate) and in assay [2] (Soy PI lipid substrate) were greater than 6.30 and 5.30 to 6.00, respectively.

In the case of `Cc1cc(C(C)Nc2ccccc2C(=O)O)c2oc(-c3ccc4nccn4c3)cc(=O)c2c1` (single isomer, unassigned) [Example 73, 2-[1-(2-Imidazo[1,2-a]pyridin-6-yl-6-methyl-4-oxo-chromen-8-yl)ethylamino]benzoic acid], the figures for the pIC50 in assay [1] (Soy PI lipid substrate) and in assay [2] (Soy PI lipid substrate) were greater than 6.30 and 5.30 to 6.00, respectively.

For `Cc1cc(C(C)Nc2ccccc2C(=O)O)c2oc(-c3nccn4cccc34)cc(=O)c2c1` (single isomer, unassigned) [Example 105, 2-[1-(6-Methyl-4-oxo-2-pyrrolo[1,2-a]pyrazin-1-yl-chromen-8-yl)ethylamino]benzoic acid], the pIC50 is greater than 6.30 in assay [1] (Soy PI lipid substrate) and 5.00 to 5.30 in assay [2] (Soy PI lipid substrate).

For `Cc1cc(C(C)Nc2ccc(C)nc2C(=O)O)c2oc(-c3cc4ccccc4[nH]3)cc(=O)c2c1` (centres unmarked) [Example 99, 3-[1-[2-(1H-Indol-2-yl)-6-methyl-4-oxo-chromen-8-yl]ethylamino]-6-methyl-pyridine-2-carboxylic acid], the pIC50 in assay [1] (Soy PI lipid substrate) and in assay [2] (Soy PI lipid substrate) was 5.30 to 6.00 each time.

`Cc1cc(C(C)Nc2ccccc2C(=O)O)c2oc(-c3ccc4nccn4n3)cc(=O)c2c1` (centres unmarked) [Example 15, 2-[1-(2-Imidazo[1,2-b]pyridazin-6-yl-6-methyl-4-oxo-chromen-8-yl)ethylamino]benzoic acid]: the pIC50 was greater than 6.30 in assay [1] (Soy PI lipid substrate) and 5.30 to 6.00 in assay [2] (Soy PI lipid substrate).

As for `Cc1cc(C(C)Nc2ccc(Cl)nc2C(=O)O)c2oc(-c3ccc4nn(C)cc4c3)cc(=O)c2c1` (single isomer, unassigned) [Example 206, 6-Chloro-3-[1-[6-methyl-2-(2-methylindazol-5-yl)-4-oxo-chromen-8-yl]ethylamino]pyridine-2-carboxylic acid], the pIC50 in assay [1] (Soy PI lipid substrate) and in assay [2] (Soy PI lipid substrate) was greater than 6.30 in each case.

For the compound `Cc1cc(C(C)Nc2ccccc2C(=O)O)c2oc(-c3cnc4sc(C)nc4c3)cc(=O)c2c1` (single isomer, unassigned) [Example 81, 2-[1-[6-Methyl-2-(2-methylthiazolo[5,4-b]pyridin-6-yl)-4-oxo-chromen-8-yl]ethylamino]benzoic acid], the pIC50 in assay [1] (Soy PI lipid substrate) is greater than 6.30; in assay [2] (Soy PI lipid substrate) it was 5.30 to 6.00.

Take `Cc1cc(C(C)Nc2ccccc2C(=O)O)c2oc(-c3ccc4c(c3)CN(C)C4=O)c(C)c(=O)c2c1` (single isomer, unassigned) [Example 137, 2-[1-[3,6-Dimethyl-2-(2-methyl-1-oxo-isoindolin-5-yl)-4-oxo-chromen-8-yl]ethylamino]benzoic acid]: the figures for the pIC50 in assay [1] (Soy PI lipid substrate) and in assay [2] (Soy PI lipid substrate) were greater than 6.30 and 5.30 to 6.00, respectively.

Take `Cc1cc(C(C)Nc2ccccc2C(=O)O)c2oc(-c3cnc4cn(C)nc4c3)cc(=O)c2c1` (single isomer, unassigned) [Example 44, 2-[1-[6-Methyl-2-(2-methylpyrazolo[4,3-b]pyridin-6-yl)-4-oxo-chromen-8-yl]ethylamino]benzoic acid]: the pIC50 was 5.30 to 6.00 in assay [1] (Soy PI lipid substrate) and 5.00 to 5.30 in assay [2] (Soy PI lipid substrate).

Regarding `Cc1c(-c2ccc3nn(C)cc3c2)oc2c(C(C)Nc3ccccc3C(=O)O)cc(F)cc2c1=O` (single isomer, unassigned) [Example 148, 2-[1-[6-Fluoro-3-methyl-2-(2-methylindazol-5-yl)-4-oxo-chromen-8-yl]ethylamino]benzoic acid], the pIC50 in assay [1] (Soy PI lipid substrate) is greater than 6.30; in assay [2] (Soy PI lipid substrate), 6.00 to 6.30.

On to `Cc1cc(C(C)Nc2ccccc2C(=O)O)c2oc(-c3ncc4cc(C)[nH]c4n3)cc(=O)c2c1` (single isomer, unassigned) [Example 72, 2-[1-[6-Methyl-2-(6-methyl-7H-pyrrolo[2,3-d]pyrimidin-2-yl)-4-oxo-chromen-8-yl]ethylamino]benzoic acid], for which the pIC50 in assay [1] (Soy PI lipid substrate) is greater than 6.30; in assay [2] (Soy PI lipid substrate), 6.00 to 6.30.

For the compound `Cc1cc(C(C)Nc2ccccc2C(=O)O)c2oc(-c3ccc4nn(C)cc4c3)cc(=O)c2c1` (centres unmarked) [Example 13, 2-[1-[6-Methyl-2-(2-methylindazol-5-yl)-4-oxo-chromen-8-yl]ethylamino]benzoic acid], the pIC50 in assay [1] (Soy PI lipid substrate) and in assay [2] (Soy PI lipid substrate) was greater than 6.30 each time.

For the compound `Cc1cc(C(C)Nc2ccc(Cl)nc2C(=O)O)c2oc(-c3ccc4nn(C)cc4c3)cc(=O)c2c1` (single isomer, unassigned) [Example 83, 6-Chloro-3-[1-[6-methyl-2-(2-methylindazol-5-yl)-4-oxo-chromen-8-yl]ethylamino]pyridine-2-carboxylic acid], the figures for the pIC50 in assay [1] (Soy PI lipid substrate) and in assay [2] (Soy PI lipid substrate) were greater than 6.30 and 6.00 to 6.30, respectively.

As to `Cc1cc(C(C)Nc2ccccc2C(=O)O)c2oc(-c3ccc4c(c3)OCO4)cc(=O)c2c1` (single isomer, unassigned) [Example 46, 2-[1-[2-(1,3-Benzodioxol-5-yl)-6-methyl-4-oxo-chromen-8-yl]ethylamino]benzoic acid], the negative-log IC50 (pIC50) in assay [1] (setting [3]) and in assay [2] (setting [3]) was greater than 6.30 throughout.

For the compound `Cc1cc(C(C)Nc2ccccc2C(=O)O)c2oc(-c3ccc4nnc(C(F)(F)F)n4c3)cc(=O)c2c1` (single isomer, unassigned) [Example 162, 2-[1-[6-Methyl-4-oxo-2-[3-(trifluoromethyl)-[1,2,4]triazolo[4,3-a]pyridin-6-yl]chromen-8-yl]ethylamino]benzoic acid], the pIC50 is 6.00 to 6.30 in assay [1] (Soy PI lipid substrate) and less than 5.00 in assay [2] (Soy PI lipid substrate).

On to `Cc1cc(C(C)Nc2ccccc2C(=O)O)c2oc(-c3ccn4c(-c5ncco5)c(C)nc4c3)cc(=O)c2c1` (single isomer, unassigned) [Example 133, 2-[1-[6-Methyl-2-(2-methyl-3-oxazol-2-yl-imidazo[1,2-a]pyridin-7-yl)-4-oxo-chromen-8-yl]ethylamino]benzoic acid], for which the negative logarithm of the IC50 (pIC50) in assay [1] (Soy PI lipid substrate) and in assay [2] (Soy PI lipid substrate) was less than 5.00 in each case.

For `Cc1cc(C(C)Nc2ccccc2C(=O)O)c2oc(-n3cc4ccccc4n3)cc(=O)c2c1` (single isomer, unassigned) [Example 50, 2-[1-(2-Indazol-2-yl-6-methyl-4-oxo-chromen-8-yl)ethylamino]benzoic acid], the negative-log IC50 (pIC50) in assay [1] (Soy PI lipid substrate) was greater than 6.30; in assay [2] (Soy PI lipid substrate) it was 5.30 to 6.00.

Take `Cc1cc(-c2cc(=O)c3cc(C(F)(F)F)cc(C(C)Nc4ccc(Cl)nc4C(=O)O)c3o2)cc2cn(C)nc12` (centres unmarked) [Example 174, 6-Chloro-3-[1-[2-(2,7-dimethylindazol-5-yl)-4-oxo-6-(trifluoromethyl)chromen-8-yl]ethylamino]pyridine-2-carboxylic acid]: the pIC50 in assay [1] (Soy PI lipid substrate) was greater than 6.30; in assay [2] (Soy PI lipid substrate) it was less than 5.00.

Regarding `Cc1cc(C(C)Nc2ccccc2C(=O)O)c2oc(-c3ccc4nc(C(F)(F)F)cn4c3)c(C)c(=O)c2c1` (single isomer, unassigned) [Example 186, 2-[1-[3,6-Dimethyl-4-oxo-2-[2-(trifluoromethyl)imidazo[1,2-a]pyridin-6-yl]chromen-8-yl]ethylamino]benzoic acid], the pIC50 was greater than 6.30 in assay [1] (Soy PI lipid substrate) and 5.30 to 6.00 in assay [2] (Soy PI lipid substrate).
